Test results from PMC7162861, “Synthesis, cytotoxicity, pharmacokinetic profile, binding with DNA and BSA of new imidazo[1,2-a]pyrazine-benzo[d]imidazol-5-yl hybrids” (Scientific Reports, 2020).

Tests used:
[1] = molecular target: bovine serum albumin (BSA) (Bos taurus, UniProt P02769); assay: Förster resonance energy transfer (FRET) with BSA; type: binding; conditions: BSA donor, compound acceptor
Text: The energy transfer efficiency from BSA and compound 31 can be calculated using Eq. 5 [27]:5 E=1−F/Fo=Ro6/Ro6+r^6
F and Fo are the BSA fluorescence intensities in the presence and absence of the derivative 31, r is the distance among the acceptor and the donor, whereas Ro is the critical distance when the efficiency of energy transfer is 50%. Ro can be calculated using Eq. 6 [28]:6 Ro6=8.8×10^−25k^2η^−4ΦJ where k^2 is the orientation factor of the dipole, ɳ is the refracted index of the medium, Ф the fluorescence quantum yield of the donor, and J is the overlap integral of the fluorescence emission spectrum of the donor with the absorption spectrum of the acceptor. The value of J can be calculated using Eq. 7 [29]:7 J=ΣF(λ)ε(λ)λ^4Δλ/ΣF(λ)Δλ where F(λ) is fluorescence intensity of the donor i.e. BSA without acceptor and ε(λ) is molar absorption coefficient of the acceptor i.e. compound 31 at the wavelength λ, respectively. The values of k^2 = 2/3, ɳ = 1.336 and Ф = 0.15 were used for the calculations.

[2] = tested on: Human Embryonic Kidney cells (HEK293); assay: MTT assay on normal cell line; type: cell-based; conditions: 48 h
Procedure: HEK-293 cells (human embryonic kidney cells) were grown in Dulbecco’s modified eagle’s medium (DMEM) supplemented with 100 U/ml penicillin, 10% FBS, […] streptomycin and 50 mM glutamine. Furthermore, cells were harvested using trypsin and seeded in a 96-well cell culture plate for the MTT (3-(4,5-Dimethylthiazol-2-yl)-2,5-diphenyltetrazolium bromide) assay. The test compound was solubilized in cell culture grade DMSO. Once the cells in 96-well plates were 70% confluent, the compound was injected to the cells at five concentrations (0.01, 0.1, 1, 10, 100 µM) at 37 °C for 48 h (made in DMEM supplemented with 1% antibiotic and 10% FBS). After 48 h, cells were washed with PBS and added with 100 μL of fresh media in each well along with 10 μL of MTT reagent (5 mg/mL) for another 4 h. After 4 h, the media was again removed and added 100 μL cell culture grade DMSO to dissolve the formazan crystals formed by the reduction of MTT by live cells. The quantity of formed formazan crystal was determined as alterations in absorbance at 570 nm wavelength using ELISA plate reader (Bio-Tek). All tests were accomplished three times. The cell toxicity (%) was calculated using the following formula: %CellToxicity=100−ODoftreatedwell/ODofuntreatedwell×100

EtBr-CT-DNA complex = assay: Competitive binding with ethidium bromide for CT-DNA; set-up: species or system calf
Procedure: Ethidium bromide (EtBr) displacement experiments were performed by incremental addition of compound 31 to complex of EtBr-DNA. The EtBr (3 µM) and CT-DNA (30 µM) were titrated with incremental addition of compound 31 (0–85 µM) in phosphate buffer (pH 7.4). […] The quenching constant (Kq) was calculated using the Stern-Volmer equation (Eq. 2). The apparent binding constant (Kapp) was obtained from known binding constant for ethidium bromide (KEtBr = 1 × 10^7 M^−1) using the following equation (Eq. 4).4 Kapp=KEtBr[EtBr]/[compound]50% where [compound]50% and [EtBr] are the concentrations of the compound at 50% quenching of DNA-bound ethidium bromide emission intensity and ethidium bromide (3 µM), respectively.

[3] = NCI cytotoxicity screen, Non-Small Cell Lung Cancer panel; type: cell-based; conditions: Homo sapiens; EXVX; five dose 0.01–100 µM; read-out: LC50 (the source's name)
Procedure: Cytotoxicity was performed at National Cancer Institute (NCI), Bethesda, USA as per their protocols.

CT-DNA = assay: Thermal denaturation of CT-DNA; type: binding, calf; conditions: CT-DNA 8.5 µM : compound 10 µM, pH 7.4
Procedure: DNA melting studies were completed by measuring the absorption spectra at 260 nm of CT-DNA (8.5 µM) and CT-DNA-derivative 31 complex (8.5 µM:10 µM) in phosphate buffer (pH 7.4) at varying temperature from 20 to 100 °C using spectrophotometer connected with Peltier.

bovine serum albumin (BSA), sequence (P02769 25-607): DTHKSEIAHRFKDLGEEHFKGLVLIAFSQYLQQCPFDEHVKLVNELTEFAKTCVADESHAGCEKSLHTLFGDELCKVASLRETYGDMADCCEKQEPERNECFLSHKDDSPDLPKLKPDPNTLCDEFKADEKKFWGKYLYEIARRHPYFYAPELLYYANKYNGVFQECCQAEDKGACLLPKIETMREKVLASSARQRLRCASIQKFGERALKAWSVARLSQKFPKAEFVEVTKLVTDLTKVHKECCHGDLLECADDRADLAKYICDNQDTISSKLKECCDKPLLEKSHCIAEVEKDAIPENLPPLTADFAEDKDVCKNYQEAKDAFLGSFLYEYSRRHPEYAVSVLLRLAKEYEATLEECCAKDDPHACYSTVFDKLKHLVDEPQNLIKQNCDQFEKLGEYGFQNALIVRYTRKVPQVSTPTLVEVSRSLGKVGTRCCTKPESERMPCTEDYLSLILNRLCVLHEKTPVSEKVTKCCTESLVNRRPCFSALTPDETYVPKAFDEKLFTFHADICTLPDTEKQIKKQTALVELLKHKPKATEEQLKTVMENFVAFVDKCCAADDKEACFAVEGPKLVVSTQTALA

c1cn2cc(-c3ccc4ncn(C5CCCCC5)c4c3)nc(-c3ccc4c(c3)ncn4C3CCCCC3)c2n1 [Compound 31, 8-(1-cyclohexyl-1H-benzo[d]imidazol-5-yl)-6-(1-cyclohexyl-1H-benzo[d]imidazol-6-yl)imidazo[1,2-a]pyrazine]
critical distance (Ro) [1]: 2.29 nm | distance between BSA and the compound (r) [1]: 2.08 nm | energy transfer efficiency (E) [1]: 64% | overlap integral value (J) [1]: 5.35 × 10^−15 cm^3 L mol^−1 | % survival of HEK293 cells ([2]; 10^−4 M): above 79% | % survival of HEK293 cells ([2]; 10^−5 M): > 83% | % survival of HEK293 cells ([2]; 10^−6 M): > 84% | % survival of HEK293 cells ([2]; 10^−7 M): > 89% | % survival of HEK293 cells ([2]; 10^−8 M): > 90% | apparent binding constant Kapp (EtBr-CT-DNA complex; EtBr displacement, Eq. 4): 750000 M⁻¹ | quenching constant (Stern-Volmer) (EtBr-CT-DNA complex; EtBr-CT-DNA 3 µM:30 µM, compound 0-80 µM): 11600 M⁻¹ | CC50 [3]: > 1 µM | ∆Tm (CT-DNA): 12 °C
